Results from patent publication US6310093A (priority 1998, dated 2001).
“And” between values parts separate entries of the source, which are not always exact repeats. Identical values can stand only once. “Also recorded” adds a separate entry of the source. Like-named read-outs stand apart in the source and are kept apart here. Non-standard residues stand in square brackets, D forms with d. Residues, ends and D or L forms follow the SMILES beside them. pGlu = O=C1CC[C@@H](C(=O)O)N1

Assays:
[1] = biological target: T1, glutaminase (brain membranes) (Rattus norvegicus, UniProt P13264); assay: biochemical; set-up: Glutaminase Activity: unit not given here; details: for Glutaminase Activity: brain membranes
T1 construct: Membranes are prepared by homogenization of brain tissue in 330 mM sucrose; from tissue; host or cells: rat brain, crude membranes (17000 G pellet)
T1 sequence (P13264 73-674 limits assumed): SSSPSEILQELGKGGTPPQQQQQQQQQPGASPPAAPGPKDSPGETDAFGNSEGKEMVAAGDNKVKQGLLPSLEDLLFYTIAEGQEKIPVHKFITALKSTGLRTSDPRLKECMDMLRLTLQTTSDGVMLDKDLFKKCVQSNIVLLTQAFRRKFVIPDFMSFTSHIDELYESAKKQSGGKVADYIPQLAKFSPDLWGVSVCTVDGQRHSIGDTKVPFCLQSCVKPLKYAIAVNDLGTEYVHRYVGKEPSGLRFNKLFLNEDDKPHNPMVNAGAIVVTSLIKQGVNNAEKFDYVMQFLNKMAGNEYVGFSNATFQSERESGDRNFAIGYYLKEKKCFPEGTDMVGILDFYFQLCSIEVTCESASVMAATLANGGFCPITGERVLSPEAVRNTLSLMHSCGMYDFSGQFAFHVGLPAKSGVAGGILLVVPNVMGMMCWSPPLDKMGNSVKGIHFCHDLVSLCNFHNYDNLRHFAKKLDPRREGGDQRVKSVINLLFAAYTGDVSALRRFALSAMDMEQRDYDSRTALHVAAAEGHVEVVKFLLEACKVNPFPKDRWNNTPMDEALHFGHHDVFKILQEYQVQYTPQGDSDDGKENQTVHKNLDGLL

[2] = tested on: pure neuronal cultures (cortical neurons) exposed to glutamine
[3] = read-out: glutaminase activity, phosphate-containing compounds

Row | SMILES | activity at 3300 µM ([1]; read-out: Glutaminase Activity) [%] | activity at 9000 µM ([1]; read-out: Glutaminase Activity) [%] | further results
1 | CC(CC(N)C(=O)O)C(=O)O (racemic) [(±)-threo-4-methylglutamate] | 170 | 100 | –
2 | CC(=O)NC(CCC(=O)O)C(=O)O (racemic) [N-acetyl-DL-glutamate] | 92 ± 10 | 75 ± 10 | –
3 | CNC(CCC(=O)O)C(=O)O (racemic) [N-methyl-DL-glutamate] | 102 | 124 | –
4 | CC(N)(CCC(=O)O)C(=O)O (racemic) [α-methyl-DL-glutamate] | 76 | – | –
5 | C=C(CC(N)C(=O)O)C(=O)O (racemic) [γ-methylene-DL-glutamate] | 105 ± 10 | – | –
6 | C[C@@H](CC(=O)O)[C@H](N)C(=O)O (relative stereo) [(±)-erythro-3-methylglutamate] | 34 | 18 | glutaminase inhibition (in words) [1]: moderate inhibition
7 | C[C@H](CC(=O)O)[C@H](N)C(=O)O (relative stereo) [(±)-threo-3-methylglutamate] | 91 | 7 | –
8 | CCCCCCCC([N+](=O)[O-])[N+](=O)[O-] [1,1-dinitrooctane] | – | – | dependence of glutaminase inhibition on phosphate level and concentration (in words) [1]: inhibition was reduced in the presence of high phosphate levels; the effect was particularly evident; also recorded: A biphasic effect; Glutaminase Activity ([1]; 30 µM): 96 ± 3; Glutaminase Activity ([1]; 100 µM): 96 ± 4; Glutaminase Activity ([1]; 300 µM): 51 ± 4 and 88 ± 17; Glutaminase Activity ([1]; 3000 µM): 64 ± 43; activity at 30 µM ([1]; read-out: Glutaminase Activity): 89 ± 6%; activity at 100 µM ([1]; read-out: Glutaminase Activity): 77 ± 11%; activity at 3000 µM ([1]; read-out: Glutaminase Activity): 79 ± 27%; neuroprotection (in words) [2]: neuroprotective in cultures of pure (intact) neurons; lowering of LDH level ([2]; pure neuronal cultures): 30-40%; lowering of glutamate level ([2]; pure neuronal cultures): 30-40%
9 | NC(CC(N)C(=O)O)C(=O)O (centres unmarked) [2,4-diaminopentanedioic acid] | 82 ± 7 | 103 ± 25 | –
10 | CCOP(=O)(OCC)c1ccc(P(=O)(OCC)OCC)s1 [2,5-bis(diethoxyphosphoryl) thiophene] | – | – | activity at 3000 µM [1, 3]: 75 to 90%; activity at 9000 µM [1, 3]: 70 to 85%
11 | O=C(O)C(CC=C1c2ccccc2C=Cc2ccccc21)C(=O)O [2-(2-dibenzo(a,d)cyclohepten-5-ylidene)-ethyl malonic acid] | – | – | dependence of glutaminase inhibition on phosphate level and concentration (in words) [1]: inhibition was reduced in the presence of high phosphate levels; the effect was particularly evident; Glutaminase Activity ([1]; 300 µM): 83 ± 7; Glutaminase Activity ([1]; 1000 µM): 61 ± 4; activity at 100 µM ([1]; read-out: Glutaminase Activity): 86 ± 10%; activity at 300 µM ([1]; read-out: Glutaminase Activity): 75 ± 5%; activity at 1000 µM ([1]; read-out: Glutaminase Activity): 44 ± 2%
12 | C=CCCCCCCCCCC(C(=O)O)C(=O)O [2-undec-10-enyl malonate] | – | – | Glutaminase Activity ([1]; 100 µM): 89 ± 6; Glutaminase Activity ([1]; 300 µM): 87 ± 2; activity at 100 µM ([1]; read-out: Glutaminase Activity): 96 ± 7%; activity at 300 µM ([1]; read-out: Glutaminase Activity): 67 ± 2%
13 | N[C@@H](CC(F)C(=O)O)C(=O)O (some centres unmarked) [4-fluoroglutamic acid] | 4.2 ± 1.3 | – | IC50 [1]: 500 µM; activity at 330 µM ([1]; read-out: Glutaminase Activity): 67 ± 7%; activity at 1000 µM ([1]; read-out: Glutaminase Activity): 30 ± 9%
14 | CC[C@](N)(CCC(=O)O)C(=O)O [(2S)-α-ethyl glutamic acid] | 95 | – | –
15 | C[C@H](N)C(=O)N[C@@H](CCC(=O)O)C(=O)O [Ala--Glu] (H-Ala-Glu-OH) | 117 | 115 | –
16 | N=C(N)NCCC[C@H](N)C(=O)N[C@@H](CCC(=O)O)C(=O)O [Arg--Glu] (H-Arg-Glu-OH) | 123 | 118 | –
17 | N[C@@H](CC(=O)O)C(=O)N[C@@H](CCC(=O)O)C(=O)O [Asp--Glu] (H-Asp-Glu-OH) | 77 | 32 | glutaminase inhibition (in words) [1]: moderate inhibition
18 | CC(C)(C)OC(=O)N[C@@H](CCC(=O)O)C(=O)O [BOC--Glu--OH] | 101 | 100 | –
19 | CC(C)(C)OC(=O)NCC(=O)NC(CC(F)C(=O)O)C(=O)O (centres unmarked) [BOC-glycyl-4-fluoroglutamate] | 52 | 15 | –
20 | N[C@@H](CCC(=O)O)C(=O)N[C@@H](CCC(=O)O)C(=O)O [Glu--Glu] (H-Glu-Glu-OH) | 130 | 141 | –
21 | N[C@@H](CCC(=O)O)C(=O)NCC(=O)O [Glu--Gly] (H-Glu-Gly-OH) | 94 | 95 | –
22 | NCCCC[C@H](NC(=O)[C@@H](N)CCC(=O)O)C(=O)O [Glu--Lys] (H-Glu-Lys-OH) | 96 | 93 | –
23 | C[C@@H](O)[C@H](NC(=O)[C@@H](N)CCC(=O)O)C(=O)O [Glu--Thr] (H-Glu-Thr-OH) | 124 | 123 | –

Row | SMILES | activity at 3300 µM ([1]; read-out: Glutaminase Activity) [%] | activity at 9000 µM ([1]; read-out: Glutaminase Activity) [%] | further results
24 | CC(C)[C@H](NC(=O)[C@@H](N)CCC(=O)O)C(=O)O [Glu--Val] (H-Glu-Val-OH) | 122 | 116 | –
25 | NCC(=O)N[C@@H](CCC(=O)O)C(=O)O [Gly--Glu] (H-Gly-Glu-OH) | 94 | 102 | –
26 | NCC(=O)NCC(=O)N[C@@H](CCC(=O)O)C(=O)O [Gly--Gly--Glu] (H-Gly-Gly-Glu-OH) | 101 | 87 | –
27 | NCC(=O)N[C@H](CCC(=O)O)C(=O)O [Gly-D-Glu] (H-Gly-[dE]-OH) | 109 | 90 | –
28 | CCOC(=O)CC[C@H](N)C(=O)O [L-glutamate-5-ethyl ester] | 98 | 92 | –
29 | COC(=O)CC[C@H](N)C(=O)O [L-glutamate-5-methyl ester] | 105 ± 7 | 113 | –
30 | NC(=O)[C@@H](N)CCC(=O)O [L-glutamide] | 99 | 96 | –
31 | CSCC[C@H](N)C(=O)N[C@@H](CCC(=O)O)C(=O)O [Met--Glu] (H-Met-Glu-OH) | 111 | 98 | –
32 | CC(=O)N[C@@H](CC(=O)O)C(=O)N[C@@H](CCC(=O)O)C(=O)O [N-acetyl Asp--Glu] (Ac-Asp-Glu-OH) | 83 | – | glutaminase inhibition (in words) [1]: moderate inhibition
33 | N=CN[C@@H](CCC(=O)O)C(=O)O [N-formamino-Glu] | 89 | 127 | –
34 | N[C@@H](CO)C(=O)N[C@@H](CCC(=O)O)C(=O)O [Ser--Glu] (H-Ser-Glu-OH) | 104 | 88 | –
35 | N[C@@H](Cc1c[nH]c2ccccc12)C(=O)N[C@@H](CCC(=O)O)C(=O)O [Trp--Glu] (H-Trp-Glu-OH) | 99 | 86 | –
36 | N[C@@H](Cc1ccc(O)cc1)C(=O)N[C@@H](CCC(=O)O)C(=O)O [Tyr--Glu] (H-Tyr-Glu-OH) | 110 | 118 | –
37 | CC(C)[C@H](N)C(=O)N[C@@H](CCC(=O)O)C(=O)O [Val--Glu] (H-Val-Glu-OH) | 114 | 99 | –
38 | O=C(O)CC[C@H](NC(=O)OCc1ccccc1)C(=O)O [carbobenzoxy-Glu--OH] | 65 | 56 | glutaminase inhibition (in words) [1]: moderate inhibition
39 | O=C(O)CCCC(=O)O [glutaric acid] | 89 | 75 | –
40 | NCC(=O)NC(CC(F)C(=O)O)C(=O)O (centres unmarked) [glycyl-4-fluoroglutamate, Glycyl-4-fluoroglutamate] | 55 | 30 | activity at 330 µM ([1]; read-out: Glutaminase Activity): 94%; activity at 900 µM ([1]; read-out: Glutaminase Activity): 80%
41 | Cc1ncc(COP(=O)(O)O)c(C=O)c1O [pyridoxal 5-phosphate] | – | – | activity at 3000 µM [1, 3]: 75 to 90%; activity at 9000 µM [1, 3]: 70 to 85%
42 | C[C@H](NC(=O)[C@@H]1CCC(=O)N1)C(=O)N[C@@H](CCC(=O)O)C(=O)O [pyro-Glu--Ala--Glu] ([pGlu]-Ala-Glu-OH) | 95 | 76 | –
43 | CC(C)OP(=O)(CCP(=O)(OC(C)C)OC(C)C)OC(C)C [tetraisopropyl ethylene diphosphonate] | – | – | activity at 3000 µM [1, 3]: 75 to 90%; activity at 9000 µM [1, 3]: 70 to 85%
44 | NC(CC(=O)O)CC(=O)O [β-glutamic acid] | 84 | – | Glutaminase Activity ([1]; 9000 µM): 73 and 83 and 94
45 | N[C@@H](CCC(=O)NCC(=O)O)C(=O)O [γ-Glu--Gly] | 90 ± 13 | – | –
46 | NC(CC(C(=O)O)C(=O)O)C(=O)O (centres unmarked) [γ-carboxy glutamate] | 100 | 104 | –
